According to patent US20190374481A1, “ADMINISTRATION REGIMEN FOR A PHARMACEUTICAL PATCH COMPRISING LIDOCAINE AND DICLOFENAC” (TEIKOKU SEIYAKU CO., LTD., priority 2017, published 2019):

What was measured:
[1] = test system: CFA-induced edema of paw / mechanical-hyperalgesia; experiment: CFA-hindpaw inflammation, paw pressure test (CFA-PPT), topical application to the paw; type: in vivo, rat
Protocol: In comparative example 2 and inventive examples 5 to 8 as described below, a compound or combination of compounds was administered topically to the paw by means of an ointment or solution (FIGS. 10 to 18).
The efficacy was tested when a compound or a compositions of compounds was administered topically as an ointment or a solution. The study was performed on male albino rats (150-180 g body weight) to which an edema of paw was induced by injection of Complete Freunds Adjuvant (CFA). CFA is a composition of inactivated and dried Myobacteria tuberculoses, emulsified in mineral oil which is used as an immunopotentiator causing a painful reaction that lasts 7-8 days after subcutaneous injection.
The studies of comparative example 2 and inventive examples 5 to 8 were performed according to the following procedure: 50 μL of CFA were injected sub plantar into the right hind paw, inducing mechanical-hyperalgesia after 24 hours. […]
The pain was measured by pressing a pointer on the inflamed paw. The pointer exerts a force, increasing at a constant rate, monitored by a linear scale. […] Efficacy of the test compounds is expressed as a percent change of withdrawal threshold after compound administration to the pre-value (withdrawal threshold before compound administration).

CFA-hindpaw inflammation = experiment: CFA-hindpaw inflammation, paw pressure test (CFA-PPT), intraperitoneal injection; type: in vivo, rat
Protocol: An interaction study was performed as a single dose study in the CFA-hindpaw inflammation, paw pressure test.
In comparative example 1 and inventive examples 1 to 4 described below, a compound or combination of compounds was administered by intraperitoneal injection (FIGS. 1 to 9).
The pain was measured by pressing a pointer on the inflamed paw. The pointer exerts a force, increasing at a constant rate, monitored by a linear scale. Pain is deemed to be perceived one the rat starts to withdraw the paw. This value (withdrawal threshold in gram) is the pressure at which the animal feels pain (cut-off 450 g). Efficacy of the test compounds is expressed as a percent change of withdrawal threshold after compound administration to the pre-value (withdrawal threshold before compound administration).

SMILES	efficacy in CFA-PPT when topically administered alone ([1]; Diclofenac alone, 40 mg/ml to 80 mg/ml)	efficacy in CFA-PPT when administered alone (CFA-hindpaw inflammation; Diclofenac alone, dose range 21.5 mg/kg to 100 mg/kg ip)	efficacy in CFA-PPT when topically administered alone ([1]; Lidocaine alone, 30 mg/ml to 60 mg/ml)	efficacy in CFA-PPT when administered alone (CFA-hindpaw inflammation; Lidocaine alone, dose range 10 mg/kg to 46.4 mg/kg ip)
O=C(O)Cc1ccccc1Nc1c(Cl)cccc1Cl [Diclofenac, 2-(2,6-dichloranilino) phenylacetic acid]	dose dependent efficacy	dose dependent efficacy		
CCN(CC)CC(=O)Nc1c(C)cccc1C [Lidocaine, 2-(diethylamino)-N-(2,6-dimethylphenyl)acetamide]			dose dependent efficacy	dose dependent efficacy
